For one test, the system named is HepG2. Nature of the test: Antiproliferative activity against human HepG2 cells. Format: functional, cell-based.
A further test relates to HCT-116. Put plainly: Antiproliferative activity against human HCT116 cells. Type of test: functional, cell-based.
The next test has as its system PANC-1. Nature of the test: Antiproliferative activity against human PANC1 cells. Type of test: functional, cell-based.
The next test is filed under the species Homo sapiens. Nature of the test: Inhibition of eEF1alpha protein expression in human PANC1 cells by Western blot analysis. Format: cell-based. On the technique in general: Immunoblotting shows a protein as a band on a membrane.

In ChEMBL document CHEMBL4196092, “Synthesis and biological evaluation of nannocystin analogues toward understanding the binding role of the (2R,3S)-Epoxide in nannocystin A” (Eur J Med Chem, 2018) one finds IC50 and inhibition data, which are given here for ten molecules.

Calls of active or inactive are those of the source. The calls are words filed in the database; no cut-off is given here.

The IC50 is the midpoint of a concentration-inhibition curve. Low readings indicate inhibition by little substance, high ones a need for much substance. As to `CC[C@H](C)[C@H]1C(=O)N[C@H](Cc2ccc(O)c(Br)c2)C(=O)N[C@@H](C(C)(C)O)C(=O)O[C@H](c2ccccc2)[C@H](C)/C=C/C=C(\C)[C@H](OC)C[C@@H]2O[C@@]2(C)C(=O)N1C`, the IC50 in the test on HepG2 was determined as 2.98 nM; in the test on HCT-116, 1.59 nM; with PANC-1 it was 9.61 nM. Further, the inhibition entry in the test listed under Homo sapiens was “Active”.

On to `CC[C@H](C)[C@H]1C(=O)N[C@H](Cc2ccc(O)c(Br)c2)C(=O)N[C@@H](C(C)C)C(=O)O[C@H](c2ccccc2)[C@H](C)/C=C/C=C(\C)[C@H](OC)C[C@@H]2O[C@@]2(C)C(=O)N1C`, for which the IC50 in the test with HepG2 was found to be 6.84 nM; in the test with HCT-116, 3.93 nM; in the test with PANC-1, 15.7 nM. The inhibition result in the test listed under Homo sapiens was “Active”.

Turning to `CC[C@H](C)[C@H]1C(=O)N[C@H](Cc2ccc(O)c(Br)c2)C(=O)N[C@@H](C(C)(C)O)C(=O)O[C@H](c2ccccc2)[C@H](C)/C=C/C=C(\C)[C@H](OC)C/C=C(\C)C(=O)N1C`, the IC50 in the test with HepG2 was found to be 5.21 nM; in the test on HCT-116, 3.88 nM; with PANC-1, 11.4 nM. Moreover, the inhibition entry in the test listed under Homo sapiens is “Active”.

In the case of `CC[C@H](C)[C@H]1C(=O)N[C@H](Cc2ccc(O)c(Br)c2)C(=O)N[C@@H](C(C)C)C(=O)O[C@H](c2ccccc2)[C@H](C)/C=C/C=C(\C)[C@H](OC)C/C=C(\C)C(=O)N1C`, the figures for the IC50 in the test with HepG2, with HCT-116 and in the test on PANC-1 were 53.7 nM, 13.2 nM and 55.8 nM, respectively. Also, the inhibition entry in the test filed under Homo sapiens is “Active”.

In the case of `CC[C@H](C)[C@H]1C(=O)N[C@H](Cc2cc(Cl)c(O)c(Cl)c2)C(=O)N[C@@H](C(C)(C)O)C(=O)O[C@H](c2ccccc2)[C@H](C)/C=C/C=C(\C)[C@H](OC)C[C@H]2O[C@]2(C)C(=O)N1C`, the IC50 with HepG2, in the test with HCT-116 and in the test with PANC-1 was > 200 nM throughout. Also, the inhibition entry in the test filed under Homo sapiens was “Active”.

On to `CC[C@H](C)[C@H]1C(=O)N[C@H](Cc2cc(Cl)c(O)c(Cl)c2)C(=O)N[C@@H](C(C)C)C(=O)O[C@H](c2ccccc2)[C@H](C)/C=C/C=C(\C)[C@H](OC)C/C=C(\C)C(=O)N1C`, for which the values for the half-inhibitory concentration (IC50) in the test on HepG2, in the test on HCT-116 and with PANC-1 were 104 nM, 21.6 nM and 137 nM, respectively. In addition, the inhibition entry in the test filed under Homo sapiens is “Active”.

Turning to `CC[C@H](C)[C@H]1C(=O)N[C@H](Cc2cc(Cl)c(O)c(Cl)c2)C(=O)N[C@@H](C(C)C)C(=O)O[C@H](c2ccccc2)[C@H](C)/C=C/C=C(\C)[C@H](OC)C[C@@H]2O[C@@]2(C)C(=O)N1C`, the concentration for half-maximal inhibition (IC50) came to 5.65 nM in the test with HepG2, 4.25 nM in the test on HCT-116 and 15.5 nM in the test with PANC-1. For the same molecule, in the test filed under Homo sapiens, the inhibition result was “Active”.

`CC[C@H](C)[C@H]1C(=O)N[C@H](Cc2cc(Cl)c(O)c(Cl)c2)C(=O)N[C@@H](C(C)(C)O)C(=O)O[C@H](c2ccccc2)[C@H](C)/C=C/C=C(\C)[C@H](OC)C[C@@H]2O[C@@]2(C)C(=O)N1C`: the 50% inhibitory concentration (IC50) is 3.36 nM with HepG2, 2.11 nM with HCT-116 and 12.2 nM in the test on PANC-1. Moreover, the inhibition entry in the test filed under Homo sapiens is “Active”.

`CC[C@H](C)[C@H]1C(=O)N[C@H](Cc2ccc(O)c(Br)c2)C(=O)N[C@@H](C(C)(C)O)C(=O)O[C@H](c2ccccc2)[C@H](C)/C=C/C=C(\C)[C@H](OC)C[C@H]2O[C@]2(C)C(=O)N1C`: the 50% inhibitory concentration (IC50) in the test on HepG2, in the test with HCT-116 and with PANC-1 was > 200 nM in each case. In addition, the inhibition result in the test listed under Homo sapiens is “Active”.

In the case of `CC[C@H](C)[C@H]1C(=O)N[C@H](Cc2cc(Cl)c(O)c(Cl)c2)C(=O)N[C@@H](C(C)(C)O)C(=O)O[C@H](c2ccccc2)[C@H](C)/C=C/C=C(\C)[C@H](OC)C/C=C(\C)C(=O)N1C`, the half-maximal inhibitory concentration (IC50) came out at 2.75 nM in the test with HepG2, 1.6 nM in the test with HCT-116 and 11.3 nM with PANC-1. Further, the inhibition result in the test listed under Homo sapiens is “Active”.
